For five compounds, IC50 results are on record in US12780800B1, “Triazole-pyridinyl substituted azacyclohexyl acetic acid compounds as LPA receptor antagonists” (Viva Star Biosciences Limited, priority 2021, dated 2022).

The term IC50 denotes the point on the concentration scale where inhibition reaches its midpoint.

The target of the test is T1, LPA1 (Homo sapiens, UniProt Q92633).
T1 construct: ProLink (PK) beta-galactosidase enzyme-fragment tag; host or cells: CHO-K1
T1 sequence (Q92633 whole entry, the tested form may be a part): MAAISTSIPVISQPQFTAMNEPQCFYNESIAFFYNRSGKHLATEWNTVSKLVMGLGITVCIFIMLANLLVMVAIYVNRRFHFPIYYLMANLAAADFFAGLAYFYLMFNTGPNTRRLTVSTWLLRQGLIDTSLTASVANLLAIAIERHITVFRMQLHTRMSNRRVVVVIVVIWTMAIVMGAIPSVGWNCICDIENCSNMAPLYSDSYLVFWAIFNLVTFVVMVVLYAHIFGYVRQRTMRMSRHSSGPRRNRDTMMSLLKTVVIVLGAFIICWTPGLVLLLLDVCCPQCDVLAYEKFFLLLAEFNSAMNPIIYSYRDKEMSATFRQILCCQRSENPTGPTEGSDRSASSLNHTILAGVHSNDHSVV
Description: LPA1 calcium flux assay (LPA1 functional antagonist assay). As to conditions: PathHunter CHO-K1 EDG2 β-Arrestin cell line; calcium indicator dye; stimulated with EC80 concentration of LPA; FLIPR Tetra. The test is classed as cell-based. The gist of the method:
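The LPA1 antagonist readout was intracellular calcium flux, and IC50 values were calculated from it. Plates stood 30 min at RT after compound addition. Cells, grown overnight, had first taken up calcium dye over 45 min at 37 °C.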
On the technique in general: Calcium assays in cells follow changes in intracellular calcium, usually with a dye or a luminescent sensor.
Take `CCc1nc(-c2nnn(C)c2COc2nccc(-n3cccn3)n2)ccc1N1CCC[C@H](CC(=O)O)C1` [Example 101, (R)-2-(1-(6-(5-(((4-(1H-pyrazol-1-yl)pyrimidin-2-yl)oxy)methyl)-1-methyl-1H-1,2,3-triazol-4-yl)-2-ethylpyridin-3-yl)piperidin-3-yl)acetic acid]: the IC50 is less than 0.1 µM. The same measure for `CCCc1ccc(=O)n(Cc2c(-c3ccc(N4CC(CC(=O)O)CCC4=O)c(CC)n3)nnn2C)c1` (single isomer, unassigned) [Example 55, (S) or (R)-2-(1-(2-ethyl-6-(1-methyl-5-((2-oxo-5-propylpyridin-1(2H)-yl)methyl)-1H-1,2,3-triazol-4-yl)pyridin-3-yl)-6-oxopiperidin-3-yl)acetic acid]: greater than 5 µM; for `CCc1nc(-c2nnn(C)c2Cn2cc(-n3cccn3)ccc2=O)ccc1N1C[C@@H](CC(=O)O)CC(F)(F)C1` [Example 28, (S)-2-(1-(2-ethyl-6-(1-methyl-5-((2-oxo-5-(1H-pyrazol-1-yl)pyridin-1 (2H)-y)methyl)-1H-1,2,3-triazol-4-yl)pyridin-3-yl)-5,5-difluoropiperidin-3-yl)acetic acid]: 0.5 to 5 µM.

For `CCc1nc(-c2nnn(C)c2COc2nccc(C3CCC3)n2)ccc1N1CC(CC(=O)O)CCC1=O` (single isomer, unassigned) [Example 92, (S) or (R)-2-(1-(6-(5-(((4-cyclobutylpyrimidin-2-yl)oxy)methyl)-1-methyl-1H-1,2,3-triazol-4-yl)-2-ethylpyridin-3-yl)-6-oxopiperidin-3-yl)acetic acid], the IC50 was greater than 5 µM. Consider `CCCN(C)C(=O)OCc1c(-c2ccc(N3CCC[C@H](CC(=O)O)C3)c(CC)n2)nnn1C` [Example 145, (R)-2-(1-(2-ethyl-6-(1-methyl-5-(((methyl(propyl)carbamoyl)oxy)methyl)-1H-1,2,3-triazol-4-yl)pyridin-3-yl)piperidin-3-yl)acetic acid], for which the IC50 was 0.5 to 5 µM.
